According to ChEMBL document CHEMBL1201862, “PubChem BioAssay data set” (2004):
Active and inactive are the calls of the source.

How the values were obtained:
Cytochrome P450 3A4 = Cytochrome P450 3A4 (Homo sapiens, UniProt P08684); details: Potency;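 note: confirmatory qHTS run detecting inhibitors and substrates of CYP3A4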
HT-1080 = assay: cytotoxicity in HT1080 fibrosarcoma cells, cell-based, fluorescence readout (AID 620); type: functional; details: Homo sapiens
[1] = LGR2 antagonists, dose response, cell-based, HEK293, CRE-luciferase reporter, cherry pick, set 2 (AID 743343); type: functional;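 note: transfected cells were stimulated with diluted bursicon conditioned medium after compound addition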
[2] = target: T1, Luciferin 4-monooxygenase (Photinus pyralis, UniProt P08659); assay: Counter Screen for Luciferase-based Assay Positives. [Related pubchem assays: 620, 618, 411 ]
[3] = MC4R antagonists, dose response, counter-screen for LGR2 antagonist project, cell-based, plate reader, cherry pick (AID 743444); type: functional;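 note: transfected HEK 293 cells stimulated with alpha-MSH peptide; potency of inhibitors of the alpha-MSH evoked signal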
[4] = Luminescence Cell-Based Dose Confirmation HTS to Identify Inhibitors of Platelet Dense Granule Release. [Related pubchem assays: 1663 (Primary HTS), 1678 (Summary of Project)]; type: functional
[5] = target: T1, Luciferin 4-monooxygenase; assay: firefly luciferase enzyme inhibitors, dose response, biochemical, luminescence (AID 1891)
[6] = target: T2, RNA-binding protein pos-1 (Caenorhabditis elegans, UniProt G5EF15); assay: inhibitors of POS-1/mex-3 RNA binding, dose response, biochemical, fluorescence polarization (AID 1964);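 note: purified POS-1 fused to maltose binding protein made in E. coli; potency of compounds blocking POS-1 binding to fluorescent RNA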
T2 sequence (G5EF15 whole entry): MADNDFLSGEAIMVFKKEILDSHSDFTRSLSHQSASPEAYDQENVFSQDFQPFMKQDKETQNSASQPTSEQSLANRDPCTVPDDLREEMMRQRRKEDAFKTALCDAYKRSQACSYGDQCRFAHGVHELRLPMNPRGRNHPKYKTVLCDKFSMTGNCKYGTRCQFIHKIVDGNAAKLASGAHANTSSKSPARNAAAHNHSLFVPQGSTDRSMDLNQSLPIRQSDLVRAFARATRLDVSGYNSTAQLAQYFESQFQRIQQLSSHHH

[7] = target: T3, Lysine-specific demethylase 4C (Homo sapiens, UniProt Q9H3R0); assay: GASC-1 (JMJD2C) histone demethylase inhibitors, dose response, biochemical, DELFIA europium, cherry-picked samples (AID 488835); type: functional
T3 sequence (Q9H3R0 whole entry): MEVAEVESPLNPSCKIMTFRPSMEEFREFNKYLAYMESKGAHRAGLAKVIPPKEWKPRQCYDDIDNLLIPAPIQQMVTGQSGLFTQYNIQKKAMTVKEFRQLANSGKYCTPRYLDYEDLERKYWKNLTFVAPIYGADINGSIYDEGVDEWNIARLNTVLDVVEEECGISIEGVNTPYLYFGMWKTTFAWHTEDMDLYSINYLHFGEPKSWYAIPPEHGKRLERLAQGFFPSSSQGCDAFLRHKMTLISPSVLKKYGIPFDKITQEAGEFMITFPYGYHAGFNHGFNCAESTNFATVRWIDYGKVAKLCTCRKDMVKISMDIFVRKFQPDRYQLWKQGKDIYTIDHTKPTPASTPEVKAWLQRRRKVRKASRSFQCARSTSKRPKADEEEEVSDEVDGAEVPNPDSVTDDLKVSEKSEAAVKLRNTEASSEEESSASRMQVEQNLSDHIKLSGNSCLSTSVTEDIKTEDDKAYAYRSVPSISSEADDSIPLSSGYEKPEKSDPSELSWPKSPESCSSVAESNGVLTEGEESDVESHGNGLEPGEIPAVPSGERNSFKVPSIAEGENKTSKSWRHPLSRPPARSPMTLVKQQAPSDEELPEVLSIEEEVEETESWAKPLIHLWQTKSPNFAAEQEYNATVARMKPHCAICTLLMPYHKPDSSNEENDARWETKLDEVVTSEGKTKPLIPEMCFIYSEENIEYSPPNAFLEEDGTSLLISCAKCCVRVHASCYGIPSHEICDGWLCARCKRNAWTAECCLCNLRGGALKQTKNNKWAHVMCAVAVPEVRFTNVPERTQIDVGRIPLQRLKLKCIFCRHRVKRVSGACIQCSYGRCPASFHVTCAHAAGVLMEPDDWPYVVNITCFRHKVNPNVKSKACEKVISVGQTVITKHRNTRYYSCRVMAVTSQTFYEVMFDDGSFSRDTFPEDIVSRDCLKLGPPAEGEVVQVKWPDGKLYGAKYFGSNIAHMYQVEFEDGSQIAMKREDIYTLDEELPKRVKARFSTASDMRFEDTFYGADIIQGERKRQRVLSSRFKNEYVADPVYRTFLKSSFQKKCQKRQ

HeLa = assay: HeLa cell cytotoxicity, dose response, cytotoxicity control, 24 h, cherry-picked samples (AID 504726); type: functional, cell-based; details: Homo sapiens;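 note: potency for cytotoxicity as loss of luminescence signal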
[8] = target: T4, Zinc finger protein mex-5 (Caenorhabditis elegans, UniProt Q9XUB2); assay: MEX-5/TCR-2 RNA interaction inhibitors, dose response, biochemical, C. elegans, fluorescence polarization (AID 1960)
T4 sequence (Q9XUB2 whole entry): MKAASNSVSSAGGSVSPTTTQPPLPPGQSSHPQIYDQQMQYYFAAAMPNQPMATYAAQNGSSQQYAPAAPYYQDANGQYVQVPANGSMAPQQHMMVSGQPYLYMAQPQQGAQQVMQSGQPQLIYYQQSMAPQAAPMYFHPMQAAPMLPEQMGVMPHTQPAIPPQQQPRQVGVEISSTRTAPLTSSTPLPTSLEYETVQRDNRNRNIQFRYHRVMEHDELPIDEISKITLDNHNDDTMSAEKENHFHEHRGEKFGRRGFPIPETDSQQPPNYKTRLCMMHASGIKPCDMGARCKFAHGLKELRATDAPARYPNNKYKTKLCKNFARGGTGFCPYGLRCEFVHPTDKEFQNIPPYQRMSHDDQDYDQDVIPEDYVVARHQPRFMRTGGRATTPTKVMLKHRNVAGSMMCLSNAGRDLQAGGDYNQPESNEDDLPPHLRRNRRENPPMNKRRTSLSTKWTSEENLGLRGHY

[9] = microbe, parasite or virus in culture; type: functional; details: Mycobacterium tuberculosis
[10] = Luminescence Cell-Based Dose Response HTS to Identify Inhibitors of 5'UTR Stem-Loop Driven Prion Protein mRNA Translation in H4 Neuroglioblastoma Cells. [Related pubchem assays: 1827 (Project Summary), 1813 (Primary HTS)]; type: functional
[11] = growth suppression of beta-catenin-knockout colon cells, dose response, cell-based, HCT116, human colon tumor (AID 1045); type: functional;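 note: HCT116 colon tumor cells with beta catenin knocked out; cells exposed to compound for 60 hours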
[12] = cytotoxicity in HPDE-C7 cells, cell-based, fluorescence, HTS (AID 430); type: functional; details: Homo sapiens
[13] = cytotoxicity in HEK-293T cells, dose response, cytotoxicity control for BCR NF-kB inhibitor project, luminescence, B-cell screen hits (AID 489021); type: functional, cell-based;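 note: HEK-293T cells carrying an NF-kB luciferase reporter; cells exposed to compound for about 14 hours before viability readout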
[14] = growth suppression of PTEN-null colon cells, dose response, cell-based, HCT116 PTEN knockout (AID 1047); type: functional;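 note: HCT116 colon tumor cells with PTEN knocked out; cells exposed to compound for 60 hours before readout; potency for loss of cell viability measured by luminescence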
[15] = inhibitors of firefly luciferase expression or activity, dose response, H4 neuroglioma cells, luminescence (AID 1990); type: functional, cell-based
[16] = inhibitors of SNCA 5'UTR-driven reporter translation, confirmation, H4 neuroglioma cells, luminescence (AID 1988); type: functional, cell-based
[17] = cytotoxicity in KRAS-transformed pancreatic duct cells, primary screen, cell-based, fluorescence, HTS (AID 431); type: functional; details: Homo sapiens;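 note: cell line used: HPDE-C7K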
Vero = Vero cell cytotoxicity, cytotoxicity control for flavivirus capping enzyme inhibitors (AID 588742); type: functional; details: Chlorocebus sabaeus
[18] = target: Peroxisome proliferator-activated receptor gamma/Nuclear receptor coactivator 1 (Homo sapiens, UniProt P37231); type: functional;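 note: agonist potency as compounds enhance coactivator SRC-1 recruitment to PPARgamma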
[19] = target: T5, Endoribonuclease toxin MazF (Escherichia coli K-12, UniProt P0AE70); assay: fluorescent RNA oligo signal without MazF, dose response, counter-screen for MazEF activator project, biochemical, fluorescence, single-stranded RNase substrate (AID 588502); type: functional
T5 sequence (P0AE70 whole entry): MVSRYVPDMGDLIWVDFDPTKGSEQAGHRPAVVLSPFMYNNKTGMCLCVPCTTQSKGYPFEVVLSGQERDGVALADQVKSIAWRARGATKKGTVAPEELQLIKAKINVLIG

[20] = target: Peroxisome proliferator-activated receptor gamma/Nuclear receptor coactivator 3 (Homo sapiens, UniProt P37231); type: functional;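 note: agonist potency for raising coactivator recruitment to the receptor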
[21] = target: Peroxisome proliferator-activated receptor gamma/Nuclear receptor coactivator 2 (Homo sapiens, UniProt P37231); type: functional;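 note: agonist potency for raising coactivator recruitment to the receptor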
ORF 73 = target: T6, ORF 73 (Human herpesvirus 8, UniProt O40947); assay: inhibitors of C-LANA binding to LBS DNA, dose response, biochemical, fluorescence polarization, cherry-picked samples (AID 504725); set-up: species or system Human gammaherpesvirus 8;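 note: fluorescence polarization of a labeled DNA duplex reporting LANA DNA binding; potency is for inhibitors that block LANA binding to the DNA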
T6 sequence (O40947 whole entry): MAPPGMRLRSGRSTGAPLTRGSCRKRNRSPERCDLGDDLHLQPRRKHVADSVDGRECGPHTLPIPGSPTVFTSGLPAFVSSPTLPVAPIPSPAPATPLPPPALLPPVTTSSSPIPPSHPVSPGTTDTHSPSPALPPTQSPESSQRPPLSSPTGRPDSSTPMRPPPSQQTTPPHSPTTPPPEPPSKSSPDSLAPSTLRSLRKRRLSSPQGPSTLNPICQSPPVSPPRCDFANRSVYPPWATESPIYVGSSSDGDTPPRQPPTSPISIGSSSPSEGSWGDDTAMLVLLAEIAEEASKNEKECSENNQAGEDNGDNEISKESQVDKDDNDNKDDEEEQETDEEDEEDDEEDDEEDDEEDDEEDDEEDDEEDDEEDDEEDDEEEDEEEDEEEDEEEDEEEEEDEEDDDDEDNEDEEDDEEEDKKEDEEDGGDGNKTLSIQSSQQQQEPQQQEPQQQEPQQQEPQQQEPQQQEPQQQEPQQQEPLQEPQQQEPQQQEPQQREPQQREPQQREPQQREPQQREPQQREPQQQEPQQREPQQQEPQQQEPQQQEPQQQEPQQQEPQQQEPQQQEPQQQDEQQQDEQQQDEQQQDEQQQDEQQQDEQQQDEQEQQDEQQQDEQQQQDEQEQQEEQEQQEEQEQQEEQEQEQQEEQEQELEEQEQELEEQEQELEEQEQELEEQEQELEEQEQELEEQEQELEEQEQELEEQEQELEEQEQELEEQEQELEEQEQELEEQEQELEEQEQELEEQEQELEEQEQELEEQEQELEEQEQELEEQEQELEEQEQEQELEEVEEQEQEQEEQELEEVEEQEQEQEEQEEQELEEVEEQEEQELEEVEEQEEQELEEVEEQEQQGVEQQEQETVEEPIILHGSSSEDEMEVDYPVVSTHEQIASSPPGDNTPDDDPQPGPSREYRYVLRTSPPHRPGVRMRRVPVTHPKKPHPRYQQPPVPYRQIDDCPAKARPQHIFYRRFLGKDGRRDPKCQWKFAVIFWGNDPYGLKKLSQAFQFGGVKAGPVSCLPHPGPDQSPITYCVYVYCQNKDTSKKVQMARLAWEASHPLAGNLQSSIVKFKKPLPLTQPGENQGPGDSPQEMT

[22] = target: T7, Corticotropin-releasing factor receptor 2/Corticotropin-releasing factor-binding protein (Homo sapiens, UniProt P24387+Q13324); assay: activators of CRF receptor 2 with binding protein – uHTS hits, confirmation (AID 602473); type: functional; details: read-out: EC50_Mean
T7 sequence (Q13324 whole entry): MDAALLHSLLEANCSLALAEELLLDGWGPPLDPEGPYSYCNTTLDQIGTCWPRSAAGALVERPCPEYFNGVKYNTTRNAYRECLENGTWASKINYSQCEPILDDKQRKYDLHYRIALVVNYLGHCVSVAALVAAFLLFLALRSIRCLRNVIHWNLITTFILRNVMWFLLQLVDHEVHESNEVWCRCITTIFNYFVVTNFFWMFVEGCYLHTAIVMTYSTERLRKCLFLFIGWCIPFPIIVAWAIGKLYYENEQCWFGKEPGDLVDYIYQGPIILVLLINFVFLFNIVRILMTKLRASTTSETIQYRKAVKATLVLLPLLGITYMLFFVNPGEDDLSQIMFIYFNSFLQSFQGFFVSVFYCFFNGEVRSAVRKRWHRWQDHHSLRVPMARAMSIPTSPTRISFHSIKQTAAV
T7 sequence (P24387 whole entry): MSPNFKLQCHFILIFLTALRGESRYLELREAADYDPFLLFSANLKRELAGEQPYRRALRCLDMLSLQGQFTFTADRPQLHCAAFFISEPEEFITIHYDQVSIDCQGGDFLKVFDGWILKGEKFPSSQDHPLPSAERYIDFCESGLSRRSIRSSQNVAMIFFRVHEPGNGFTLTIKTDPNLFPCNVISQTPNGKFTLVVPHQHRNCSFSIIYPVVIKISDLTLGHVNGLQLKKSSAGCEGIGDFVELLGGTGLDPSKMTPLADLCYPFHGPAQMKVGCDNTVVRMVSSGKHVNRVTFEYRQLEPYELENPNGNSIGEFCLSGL

[23] = target: T5, Endoribonuclease toxin MazF; assay: MazF toxin RNase activators, dose response, biochemical, fluorescence, single-stranded RNA substrate, uHTS hits (AID 588481); type: functional

T1 sequence (P08659 whole entry): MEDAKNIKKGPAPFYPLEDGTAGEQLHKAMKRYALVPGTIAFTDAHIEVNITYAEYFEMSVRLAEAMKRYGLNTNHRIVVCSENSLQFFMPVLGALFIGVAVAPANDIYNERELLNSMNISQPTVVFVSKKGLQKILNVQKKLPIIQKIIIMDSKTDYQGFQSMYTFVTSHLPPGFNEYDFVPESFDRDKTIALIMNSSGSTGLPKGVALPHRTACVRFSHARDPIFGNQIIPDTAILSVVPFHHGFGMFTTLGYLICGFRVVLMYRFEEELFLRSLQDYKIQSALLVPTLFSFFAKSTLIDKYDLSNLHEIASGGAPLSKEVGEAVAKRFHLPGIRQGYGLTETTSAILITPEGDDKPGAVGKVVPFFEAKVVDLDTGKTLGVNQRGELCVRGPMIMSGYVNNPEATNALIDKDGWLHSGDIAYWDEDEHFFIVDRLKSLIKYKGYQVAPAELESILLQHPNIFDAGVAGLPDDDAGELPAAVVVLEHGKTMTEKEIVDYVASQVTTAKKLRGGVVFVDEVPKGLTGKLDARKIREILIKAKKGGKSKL
Cytochrome P450 3A4, sequence (P08684 whole entry): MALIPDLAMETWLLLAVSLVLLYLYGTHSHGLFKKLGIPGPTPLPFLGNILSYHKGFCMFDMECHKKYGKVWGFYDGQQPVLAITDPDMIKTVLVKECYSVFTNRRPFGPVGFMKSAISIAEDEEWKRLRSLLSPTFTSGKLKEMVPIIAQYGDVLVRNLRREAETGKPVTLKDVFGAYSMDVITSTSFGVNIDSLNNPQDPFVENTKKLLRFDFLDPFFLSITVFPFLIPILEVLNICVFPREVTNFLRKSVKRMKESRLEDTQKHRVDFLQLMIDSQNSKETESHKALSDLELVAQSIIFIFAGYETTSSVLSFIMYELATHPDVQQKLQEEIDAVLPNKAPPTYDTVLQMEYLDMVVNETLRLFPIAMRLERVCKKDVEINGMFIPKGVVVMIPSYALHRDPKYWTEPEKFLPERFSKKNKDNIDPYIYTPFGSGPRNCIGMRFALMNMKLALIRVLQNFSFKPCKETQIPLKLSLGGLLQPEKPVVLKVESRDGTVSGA
Peroxisome proliferator-activated receptor gamma/Nuclear receptor coactivator 3, sequence (P37231 whole entry): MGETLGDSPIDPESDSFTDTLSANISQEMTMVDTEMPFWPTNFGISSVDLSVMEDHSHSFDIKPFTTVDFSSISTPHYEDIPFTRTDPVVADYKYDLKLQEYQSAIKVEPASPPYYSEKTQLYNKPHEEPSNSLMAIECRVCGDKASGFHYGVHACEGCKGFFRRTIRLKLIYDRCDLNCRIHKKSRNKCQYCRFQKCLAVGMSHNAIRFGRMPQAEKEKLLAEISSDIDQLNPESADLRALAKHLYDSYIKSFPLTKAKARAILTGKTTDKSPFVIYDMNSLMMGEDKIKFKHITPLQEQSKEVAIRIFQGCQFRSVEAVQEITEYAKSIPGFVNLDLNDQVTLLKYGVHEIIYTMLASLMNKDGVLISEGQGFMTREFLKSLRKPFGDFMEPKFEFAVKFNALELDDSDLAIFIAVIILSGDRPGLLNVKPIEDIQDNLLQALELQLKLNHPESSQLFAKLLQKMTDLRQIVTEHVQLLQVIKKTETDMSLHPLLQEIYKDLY
Peroxisome proliferator-activated receptor gamma/Nuclear receptor coactivator 3, sequence (Q9Y6Q9 whole entry, further chain): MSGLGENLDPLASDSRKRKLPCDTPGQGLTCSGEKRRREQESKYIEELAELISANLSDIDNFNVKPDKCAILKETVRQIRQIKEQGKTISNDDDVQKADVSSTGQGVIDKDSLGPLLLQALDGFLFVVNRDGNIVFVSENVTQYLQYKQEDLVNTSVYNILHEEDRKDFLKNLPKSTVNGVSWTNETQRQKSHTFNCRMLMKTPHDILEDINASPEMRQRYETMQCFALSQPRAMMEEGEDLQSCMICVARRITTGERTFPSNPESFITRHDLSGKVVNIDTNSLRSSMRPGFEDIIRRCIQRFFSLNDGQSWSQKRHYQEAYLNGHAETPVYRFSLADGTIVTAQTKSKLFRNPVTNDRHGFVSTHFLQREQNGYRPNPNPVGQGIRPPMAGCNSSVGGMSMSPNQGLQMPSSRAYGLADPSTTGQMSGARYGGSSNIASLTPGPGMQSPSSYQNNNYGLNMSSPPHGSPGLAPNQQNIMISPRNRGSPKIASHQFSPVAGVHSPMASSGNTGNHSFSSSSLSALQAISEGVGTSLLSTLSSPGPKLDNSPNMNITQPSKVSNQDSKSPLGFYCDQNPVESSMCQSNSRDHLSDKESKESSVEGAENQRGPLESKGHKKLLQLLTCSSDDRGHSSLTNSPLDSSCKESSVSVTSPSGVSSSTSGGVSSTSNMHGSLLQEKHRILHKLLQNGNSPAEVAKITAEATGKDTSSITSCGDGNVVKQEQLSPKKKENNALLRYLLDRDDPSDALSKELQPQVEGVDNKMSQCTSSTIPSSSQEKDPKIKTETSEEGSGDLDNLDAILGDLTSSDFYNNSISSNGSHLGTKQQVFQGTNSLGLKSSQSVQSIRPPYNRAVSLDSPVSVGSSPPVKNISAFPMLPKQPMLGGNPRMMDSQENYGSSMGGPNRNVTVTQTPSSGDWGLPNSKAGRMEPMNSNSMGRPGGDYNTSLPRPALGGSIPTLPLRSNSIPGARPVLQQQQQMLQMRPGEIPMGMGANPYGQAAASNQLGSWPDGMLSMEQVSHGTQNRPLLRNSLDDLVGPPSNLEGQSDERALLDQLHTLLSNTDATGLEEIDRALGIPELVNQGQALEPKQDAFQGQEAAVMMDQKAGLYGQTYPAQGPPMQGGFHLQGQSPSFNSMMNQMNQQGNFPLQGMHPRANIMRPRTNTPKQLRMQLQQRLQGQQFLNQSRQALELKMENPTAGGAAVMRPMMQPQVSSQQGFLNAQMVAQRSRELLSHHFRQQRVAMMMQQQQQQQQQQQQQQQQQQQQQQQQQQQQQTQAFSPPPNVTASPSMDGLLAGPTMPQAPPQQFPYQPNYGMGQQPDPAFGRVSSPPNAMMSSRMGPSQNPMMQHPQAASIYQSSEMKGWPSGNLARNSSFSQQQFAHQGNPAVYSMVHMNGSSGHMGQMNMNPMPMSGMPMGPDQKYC
Peroxisome proliferator-activated receptor gamma/Nuclear receptor coactivator 1, sequence (P37231 whole entry): as the sequence (P37231 whole entry) above
Peroxisome proliferator-activated receptor gamma/Nuclear receptor coactivator 1, sequence (Q15788 whole entry, further chain): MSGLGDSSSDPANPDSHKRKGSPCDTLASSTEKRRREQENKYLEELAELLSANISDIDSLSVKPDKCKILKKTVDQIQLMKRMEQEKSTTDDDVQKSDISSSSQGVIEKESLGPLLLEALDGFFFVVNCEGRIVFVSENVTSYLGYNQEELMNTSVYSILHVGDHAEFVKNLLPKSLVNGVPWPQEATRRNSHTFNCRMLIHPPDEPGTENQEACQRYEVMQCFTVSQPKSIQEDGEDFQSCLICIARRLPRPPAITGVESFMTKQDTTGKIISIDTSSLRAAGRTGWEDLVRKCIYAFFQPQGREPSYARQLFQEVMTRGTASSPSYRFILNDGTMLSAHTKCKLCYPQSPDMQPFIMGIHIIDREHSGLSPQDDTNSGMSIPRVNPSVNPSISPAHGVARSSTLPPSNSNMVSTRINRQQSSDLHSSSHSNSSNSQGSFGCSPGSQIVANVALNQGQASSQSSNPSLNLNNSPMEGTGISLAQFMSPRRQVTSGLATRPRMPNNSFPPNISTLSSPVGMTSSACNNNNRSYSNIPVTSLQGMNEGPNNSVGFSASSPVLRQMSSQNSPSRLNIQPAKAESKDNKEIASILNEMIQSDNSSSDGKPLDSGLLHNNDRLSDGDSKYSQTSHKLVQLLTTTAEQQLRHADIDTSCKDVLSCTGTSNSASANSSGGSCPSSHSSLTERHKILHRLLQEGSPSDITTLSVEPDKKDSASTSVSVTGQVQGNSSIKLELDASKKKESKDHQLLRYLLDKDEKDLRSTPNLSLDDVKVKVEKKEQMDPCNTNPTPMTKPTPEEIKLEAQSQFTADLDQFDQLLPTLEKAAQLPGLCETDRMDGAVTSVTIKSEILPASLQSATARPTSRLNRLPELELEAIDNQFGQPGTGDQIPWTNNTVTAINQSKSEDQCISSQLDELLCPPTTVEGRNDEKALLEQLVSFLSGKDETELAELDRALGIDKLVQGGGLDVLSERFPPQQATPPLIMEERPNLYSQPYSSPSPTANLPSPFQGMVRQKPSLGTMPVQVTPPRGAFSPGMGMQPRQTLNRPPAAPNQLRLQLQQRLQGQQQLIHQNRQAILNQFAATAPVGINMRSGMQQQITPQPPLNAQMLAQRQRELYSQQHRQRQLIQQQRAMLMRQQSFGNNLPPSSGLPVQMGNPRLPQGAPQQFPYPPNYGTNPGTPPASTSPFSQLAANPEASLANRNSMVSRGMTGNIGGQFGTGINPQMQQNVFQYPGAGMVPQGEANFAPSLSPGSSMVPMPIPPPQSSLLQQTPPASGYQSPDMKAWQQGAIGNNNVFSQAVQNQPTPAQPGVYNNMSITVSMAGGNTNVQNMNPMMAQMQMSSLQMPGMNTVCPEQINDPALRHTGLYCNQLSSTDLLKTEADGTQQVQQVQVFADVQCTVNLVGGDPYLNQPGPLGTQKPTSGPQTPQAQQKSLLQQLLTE

## C[C@@H]1CCC2[C@](C)(CO)C(O)CC[C@@]2(C)[C@@]12CC[C@](CO)(CCO)O2 (some centres undefined)
Cytochrome P450 3A4
  AC50: 25.1 µM (inconclusive)

## Oc1ccc(Cl)c(Cl)c1Cl
Cytochrome P450 3A4
  AC50: 15.8 µM (inconclusive)

## CCCCCc1ccc(-c2ccc(C(=O)O)cc2)nc1
HT-1080
  EC50: > 50 µM (not active)
[1]
  AC50: 13.9 µM (active)
[2]
  EC50: 43.4 µM (active)
[3]
  AC50: 14.1 µM (active)

## Cc1cc(NS(=O)(=O)c2ccc(Nc3nc(-c4sc(N)nc4C)cs3)cc2)no1
[4]
  EC50: > 112 µM (not active)
[5]
  EC50: > 112 µM (not active)
[6]
  EC50: 9.62 µM (active)
[7]
  AC50: 8.48 µM (active)
HeLa
  AC50: 52.4 µM (active)
[8]
  EC50: 7.76 µM (active)

## CC1CC(C)(C)Nc2ccc(OC(=O)c3ccco3)cc21 (centres undefined)
[9]
  CC50: 30 µM (active)
[10]
  EC50: 14.8 µM (active)
[11]
  EC50: 8.18 µM (active)
HT-1080
  EC50: > 50 µM (not active)
[12]
  EC50: 10.1 µM (active)
[13]
  IC50: 50.9 µM (inactive)
[14]
  EC50: 8.58 µM (active)
[15]
  EC50: 8.25 µM (active)
[2]
  EC50: < 0.2 µM (active)
[16]
  EC50: 20.1 µM (active)
[17]
  EC50: 9.77 µM (active)
Vero
  CC50: > 40 µM (active)

## Clc1ccc(-c2nnc3sc(-c4ccc(Br)o4)nn23)cc1
[18]
  EC50: > 79.4 µM (not active)
[19]
  EC50: > 99 µM (inactive)
[20]
  EC50: > 79.4 µM (not active)
[21]
  EC50: 39.7 µM (not active)
ORF 73
  AC50: 27.1 µM (active)
[22]
  EC50: > 53 µM (inactive)
[23]
  EC50: > 99 µM (inactive)

## CN(C)S(=O)(=O)c1cccc(N2C(=O)CC3(CCCCC3)CC2=O)c1
ORF 73
  AC50: 76.9 µM (active)
HeLa
  AC50: > 350 µM (inactive)

## CC(C)=CCC1=C(O)C(=O)c2ccccc2C1=O [LAPACHOL]
Cytochrome P450 3A4
  AC50: 25.1 µM (inconclusive)
